Measurements reported in patent US7247627B2, “Salts and polymorphs of a pyrrole-substituted indolinone compound” (Pharmacia & Upjohn Company, priority 2003, dated 2007).

Experiment: Chemical stability in temperature and humidity-controlled chamber (Example 2)
Type: physicochemical
Set-up: key to Appearance: U: unchanged
Method: Chemical stability was assessed for two different samples of 5-[(Z)-(5-fluoro-2-oxo-1,2-dihydro-3H-indol-3-ylidene)methyl]-N-[(2S)-2-hydroxy-3-morpholin-4-ylpropyl]-2,4-dimethyl-1H-pyrrole-3-carboxamide maleate salt, polymorph Form 1. Samples were maintained in a temperature and humidity-controlled chamber at 25° C. and 60% relative humidity (Tables 7 and 8) or at 40° C. and 75% relative humidity (Tables 9 and 10). At various time intervals, material was removed and tested for maleate counterion assay, impurities, water content and enantiomeric purity.
The maleate counterion assay was determined by ion exchange chromatography (IEC).
A suitable amount of the maleate salt is dissolved in water (Milli Q grade) and analyzed by IEC, and compared to calibration samples. Under these conditions, the peak due to maleic acid has a retention time of about 11 minutes. The amount of maleic acid in the sample is calculated as: % Assay=(Cs/W)×100 where Cs is the concentration of maleic acid found in the sample, and W is the theoretical sample concentration in the aqueous solution.
The amounts of impurities and degradation products were determined by HPLC, using a Perkin Elmer LC 200 system with a diode array detector. The analytical column was a Waters Xterra RP18, 5 μm, 250×4.6 mm, and the guard column was a Waters Xterra RP18, 5 μm, 20×3.9 mm. Mobile phase A was a mixture of 90% 0.05 M ammonium acetate buffer at pH 5.5 and 10% acetonitrile. Mobile phase B was a mixture of 10% 0.05 M ammonium acetate buffer at pH 5.5 and 90% acetonitrile.
Flow rate was 1 mL/min, injection volume 30 μL, room temperature, 435 nm detection. Under these conditions, the peak due to the maleate salt has a retention time of about 24 minutes. Impurities are characterized by their relative retention time (RRT). The impurity at RRT=0.26 is the E isomer. The other impurities were not characterized.
Enantiomeric purity was determined by HPLC, using a Chiralpak AD analytical column, 10 μm, 250×4.6 mm (Daicel Chemical Industries, Ltd.) using an oven temperature of 30° C., a mobile phase of 2-propanol/heptane/diethylamine (50/50/0.1), an isocratic elution mode, a flow rate of 0.5 mL/min, injection volume of 50 μL, detector wavelength of 265 nm, dilution solvent 2-propanol/heptane (50/50) and a sample concentration of 0.3 mg/mL. Under these conditions, the S isomer has a retention time of about 15.5 minutes, and the R isomer has a retention time of about 22 minutes.
Water content was determined according to USP 25, <921>, Method Ic.

[1] = 25° C. and 60% Relative Humidity, 1 mo.
[2] = 25° C. and 60% Relative Humidity, 3 mo.
[3] = 25° C. and 60% Relative Humidity, 6 mo.
[4] = 25° C. and 60% Relative Humidity, 9 mo.
[5] = 25° C. and 60% Relative Humidity, 12 mo.
[6] = 25° C. and 60% Relative Humidity, Initial
[7] = 40° C. and 75% Relative Humidity, 1 mo.
[8] = 40° C. and 75% Relative Humidity, 3 mo.
[9] = 40° C. and 75% Relative Humidity, 6 mo.
[10] = 40° C. and 75% Relative Humidity, Initial

Cc1[nH]c(/C=C2\C(=O)Nc3ccc(F)cc32)c(C)c1C(=O)NC[C@H](O)CN1CCOCC1 [Sample A, 5-[(Z)-(5-fluoro-2-oxo-1,2-dihydro-3H-indol-3-ylidene)methyl]-N-[(2S)-2-hydroxy-3-morpholin-4-ylpropyl]-2,4-dimethyl-1H-pyrrole-3-carboxamide]
Appearance [1]: U^a
Assay (% free base equivalent) [1]: 97.5 % free base equivalent
Enantiomeric Purity (%) [1]: >99.9%
Impurities (%) RRT 0.26 [1]: 0.28%
Impurities (%) RRT 0.51 [1]: 0.41%
Impurities (%) RRT 0.71 [1]: 0.06%
Impurities (%) RRT 1.53 [1]: 0.11%
Impurities (%) RRT 1.74 [1]: 0.10%
Impurities (%) RRT 1.84 [1]: 0.13%
Total Impurities (%) [1]: 1.09%
Water Content (%) [1]: 0.53%
Appearance [2]: U^a
Assay (% free base equivalent) [2]: 98.4 % free base equivalent
Enantiomeric Purity (%) [2]: >99.9%
Impurities (%) RRT 0.26 [2]: 0.05%
Impurities (%) RRT 0.51 [2]: 0.40%
Impurities (%) RRT 1.53 [2]: 0.12%
Impurities (%) RRT 1.74 [2]: 0.09%
Impurities (%) RRT 1.84 [2]: 0.12%
Total Impurities (%) [2]: 0.78%
Water Content (%) [2]: 0.68%
Appearance [3]: U^a
Assay (% free base equivalent) [3]: 98.4 % free base equivalent
Enantiomeric Purity (%) [3]: >99.9%
Impurities (%) RRT 0.26 [3]: 0.07%
Impurities (%) RRT 0.51 [3]: 0.42%
Impurities (%) RRT 1.53 [3]: 0.12%
Impurities (%) RRT 1.74 [3]: 0.09%
Impurities (%) RRT 1.84 [3]: 0.12%
Total Impurities (%) [3]: 0.82%
Water Content (%) [3]: 0.46%
Appearance [4]: U^a
Assay (% free base equivalent) [4]: 98.4 % free base equivalent
Enantiomeric Purity (%) [4]: >99.9%
Impurities (%) RRT 0.26 [4]: 0.15%
Impurities (%) RRT 0.51 [4]: 0.36%
Impurities (%) RRT 1.53 [4]: 0.12%
Impurities (%) RRT 1.74 [4]: 0.07%
Impurities (%) RRT 1.84 [4]: 0.10%
Total Impurities (%) [4]: 0.77%
Water Content (%) [4]: 0.42%
Appearance [5]: U^a
Assay (% free base equivalent) [5]: 98.2 % free base equivalent
Enantiomeric Purity (%) [5]: >99.9%
Impurities (%) RRT 0.26 [5]: 0.06%
Impurities (%) RRT 0.51 [5]: 0.33%
Impurities (%) RRT 1.53 [5]: 0.13%
Impurities (%) RRT 1.74 [5]: 0.07%
Impurities (%) RRT 1.84 [5]: 0.11%
Total Impurities (%) [5]: 0.70%
Water Content (%) [5]: 0.74%
Assay (% free base equivalent) [6]: 98.7 % free base equivalent
Enantiomeric Purity (%) [6]: >99.9%
Impurities (%) RRT 0.26 [6]: 0.09%
Impurities (%) RRT 0.51 [6]: 0.40%
Impurities (%) RRT 0.71 [6]: 0.05%
Impurities (%) RRT 1.53 [6]: 0.10%
Impurities (%) RRT 1.74 [6]: 0.09%
Impurities (%) RRT 1.84 [6]: 0.10%
Total Impurities (%) [6]: 0.83%
Water Content (%) [6]: 0.55%
Appearance [7]: U^a
Assay (% free base equivalent) [7]: 97.9 % free base equivalent
Enantiomeric Purity (%) [7]: 100.00%
Impurities (%) RRT 0.26 [7]: 0.29%
Impurities (%) RRT 0.51 [7]: 0.39%
Impurities (%) RRT 1.53 [7]: 0.11%
Impurities (%) RRT 1.74 [7]: 0.08%
Impurities (%) RRT 1.84 [7]: 0.13%
Total Impurities (%) [7]: 1.00%
Water Content (%) [7]: 0.57%
Appearance [8]: U^a
Assay (% free base equivalent) [8]: 98.5 % free base equivalent
Enantiomeric Purity (%) [8]: 100.00%
Impurities (%) RRT 0.26 [8]: 0.05%
Impurities (%) RRT 0.51 [8]: 0.40%
Impurities (%) RRT 1.53 [8]: 0.14%
Impurities (%) RRT 1.74 [8]: 0.08%
Impurities (%) RRT 1.84 [8]: 0.12%
Total Impurities (%) [8]: 0.80%
Water Content (%) [8]: 0.69%
Appearance [9]: U^a
Assay (% free base equivalent) [9]: 98.0 % free base equivalent
Enantiomeric Purity (%) [9]: 100.00%
Impurities (%) RRT 0.26 [9]: 0.07%
Impurities (%) RRT 0.51 [9]: 0.40%
Impurities (%) RRT 1.53 [9]: 0.15%
Impurities (%) RRT 1.74 [9]: 0.07%
Impurities (%) RRT 1.84 [9]: 0.12%
Total Impurities (%) [9]: 0.81%
Water Content (%) [9]: 0.42%
Assay (% free base equivalent) [10]: 98.7 % free base equivalent
Enantiomeric Purity (%) [10]: 100.00%
Impurities (%) RRT 0.26 [10]: 0.09%
Impurities (%) RRT 0.51 [10]: 0.40%
Impurities (%) RRT 0.71 [10]: 0.05%
Impurities (%) RRT 1.53 [10]: 0.10%
Impurities (%) RRT 1.74 [10]: 0.09%
Impurities (%) RRT 1.84 [10]: 0.10%
Total Impurities (%) [10]: 0.83%
Water Content (%) [10]: 0.55%

Cc1[nH]c(/C=C2\C(=O)Nc3ccc(F)cc32)c(C)c1C(=O)NC[C@H](O)CN1CCOCC1 [Sample B, 5-[(Z)-(5-fluoro-2-oxo-1,2-dihydro-3H-indol-3-ylidene)methyl]-N-[(2S)-2-hydroxy-3-morpholin-4-ylpropyl]-2,4-dimethyl-1H-pyrrole-3-carboxamide]
Appearance [1]: U^a
Assay (% free base equivalent) [1]: 98.2 % free base equivalent
Impurities (%) RRT 0.26 [1]: 0.06%
Impurities (%) RRT 0.51 [1]: 0.62%
Impurities (%) RRT 0.71 [1]: 0.09%
Impurities (%) RRT 1.53 [1]: 0.09%
Impurities (%) RRT 1.74 [1]: 0.06%
Impurities (%) RRT 1.84 [1]: 0.08%
Total Impurities (%) [1]: 1.00%
Water Content (%) [1]: 0.50%
Appearance [2]: U^a
Assay (% free base equivalent) [2]: 98.2 % free base equivalent
Impurities (%) RRT 0.26 [2]: 0.18%
Impurities (%) RRT 0.51 [2]: 0.61%
Impurities (%) RRT 0.71 [2]: 0.09%
Impurities (%) RRT 1.53 [2]: 0.08%
Impurities (%) RRT 1.74 [2]: 0.05%
Impurities (%) RRT 1.84 [2]: 0.09%
Total Impurities (%) [2]: 1.10%
Water Content (%) [2]: 0.54%
Appearance [3]: U^a
Assay (% free base equivalent) [3]: 97.7 % free base equivalent
Impurities (%) RRT 0.26 [3]: 0.05%
Impurities (%) RRT 0.51 [3]: 0.56%
Impurities (%) RRT 0.71 [3]: 0.05%
Impurities (%) RRT 1.53 [3]: 0.08%
Impurities (%) RRT 1.74 [3]: 0.06%
Impurities (%) RRT 1.84 [3]: 0.09%
Total Impurities (%) [3]: 0.90%
Water Content (%) [3]: 0.47%
Assay (% free base equivalent) [6]: 97.8 % free base equivalent
Enantiomeric Purity (%) [6]: >99.90%
Impurities (%) RRT 0.26 [6]: 0.21%
Impurities (%) RRT 0.51 [6]: 0.68%
Impurities (%) RRT 0.71 [6]: 0.07%
Impurities (%) RRT 1.53 [6]: 0.11%
Impurities (%) RRT 1.74 [6]: 0.07%
Impurities (%) RRT 1.84 [6]: 0.10%
Total Impurities (%) [6]: 1.24%
Water Content (%) [6]: 0.45%
Appearance [7]: U^a
Assay (% free base equivalent) [7]: 98.2 % free base equivalent
Impurities (%) RRT 0.26 [7]: 0.13%
Impurities (%) RRT 0.51 [7]: 0.61%
Impurities (%) RRT 0.71 [7]: 0.08%
Impurities (%) RRT 1.53 [7]: 0.10%
Impurities (%) RRT 1.74 [7]: 0.06%
Impurities (%) RRT 1.84 [7]: 0.08%
Total Impurities (%) [7]: 1.06%
Water Content (%) [7]: 0.49%
Appearance [8]: U^a
Assay (% free base equivalent) [8]: 97.2 % free base equivalent
Impurities (%) RRT 0.26 [8]: 0.18%
Impurities (%) RRT 0.51 [8]: 0.58%
Impurities (%) RRT 0.71 [8]: 0.08%
Impurities (%) RRT 1.53 [8]: 0.09%
Impurities (%) RRT 1.74 [8]: 0.05%
Impurities (%) RRT 1.84 [8]: 0.09%
Total Impurities (%) [8]: 1.06%
Water Content (%) [8]: 0.49%
Appearance [9]: U^a
Assay (% free base equivalent) [9]: 97.5 % free base equivalent
Enantiomeric Purity (%) [9]: >99.9%
Impurities (%) RRT 0.26 [9]: 0.05%
Impurities (%) RRT 0.51 [9]: 0.54%
Impurities (%) RRT 1.53 [9]: 0.10%
Impurities (%) RRT 1.74 [9]: 0.05%
Impurities (%) RRT 1.84 [9]: 0.09%
Total Impurities (%) [9]: 0.83%
Water Content (%) [9]: 0.47%
Assay (% free base equivalent) [10]: 97.8 % free base equivalent
Enantiomeric Purity (%) [10]: >99.95%
Impurities (%) RRT 0.26 [10]: 0.21%
Impurities (%) RRT 0.51 [10]: 0.68%
Impurities (%) RRT 0.71 [10]: 0.07%
Impurities (%) RRT 1.53 [10]: 0.11%
Impurities (%) RRT 1.74 [10]: 0.07%
Impurities (%) RRT 1.84 [10]: 0.10%
Total Impurities (%) [10]: 1.24%
Water Content (%) [10]: 0.45%
